The assay has as its system P388 leukemia ip, CD2F1 mice, survival T/C. Briefly: NCI In Vivo Anticancer Drug Screen. Data for tumor model P388 Leukemia (intraperitoneal) in CD2F1 (CDF1) mice. To be noted: endpoint: median survival time, higher = longer survival. Summed up: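 Mice carrying the transplanted tumor received test compound or vehicle. Survival was recorded in each group, and the value is the treated-group measurement divided by that of the vehicle-treated control group.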

Setting [1] is: dose: 100.0 mg/kg/injection, schedule: Q04DX003 (ip), vehicle: saline.
Where [2] appears, read: dose: 200.0 mg/kg/injection, schedule: Q04DX003 (ip), vehicle: saline.
[3] abbreviates: dose: 50.0 mg/kg/injection, schedule: Q01DX009 (ip), vehicle: saline with Tween-80.
[4] abbreviates: dose: 100.0 mg/kg/injection, schedule: Q01DX009 (ip), vehicle: saline with Tween-80.
[5] abbreviates: dose: 200.0 mg/kg/injection, schedule: Q01DX009 (ip), vehicle: saline with Tween-80.
Where [6] appears, read: dose: 60.0 mg/kg/injection, schedule: Q01DX005 (ip), vehicle: Klucel (hydroxypropylcellulose) (HPC).
[7] abbreviates: dose: 100.0 mg/kg/injection, schedule: Q01DX009 (ip), vehicle: saline.
The mark [8] stands for this setting: dose: 200.0 mg/kg/injection, schedule: Q01DX009 (ip), vehicle: saline.
Where [9] appears, read: dose: 200.0 mg/kg/injection, schedule: Q01DX005 (ip), vehicle: saline with Tween-80.
[10] abbreviates: dose: 60.0 mg/kg/injection, schedule: Q01DX005 (ip), vehicle: saline with Tween-80.
[11] abbreviates: dose: 120.0 mg/kg/injection, schedule: Q01DX005 (ip), vehicle: saline with Tween-80.

Values joined by “and” are separate entries in the source; they are usually repeats but may differ in a detail not shown here. Identical values can stand only once. Inconclusive results and toxic doses are left out. Peptide text beside a SMILES is read from it.

For `Cc1c2cc[n+](CCN3CCCCC3)cc2c(C)c2c1[nH]c1ccc(O)cc12`, the T/C runs as follows: (dose: 1.56 mg/kg/injection, schedule: Q04DX003 (ip), vehicle: suspension in saline) 152 % of control; (dose: 3.12 mg/kg/injection, schedule: Q04DX003 (ip), vehicle: suspension in saline) 152 % of control; (dose: 6.25 mg/kg/injection, schedule: Q04DX003 (ip), vehicle: saline) 178 % of control and 201 % of control; (dose: 12.5 mg/kg/injection, schedule: Q04DX003 (ip), vehicle: saline) 178 % of control; (dose: 12.5 mg/kg/injection, schedule: Q04DX003 (ip), vehicle: suspension in saline) 164 % of control; (dose: 25.0 mg/kg/injection, schedule: Q04DX003 (ip), vehicle: saline) 190 % of control and 194 % of control. The T/C reads like this: (dose: 25.0 mg/kg/injection, schedule: Q04DX003 (ip), vehicle: suspension in saline) 164 % of control; (dose: 50.0 mg/kg/injection, schedule: Q04DX003 (ip), vehicle: saline) 255 % of control; (dose: 50.0 mg/kg/injection, schedule: Q04DX003 (ip), vehicle: suspension in saline) 152 % of control; under setting [1], 216 % of control; (dose: 100.0 mg/kg/injection, schedule: Q04DX003 (ip), vehicle: suspension in saline) 169 % of control; under setting [2], 104 % of control. Under “dose: 200.0 mg/kg/injection, schedule: Q04DX003 (ip), vehicle: suspension in saline”, the T/C was 98 % of control.

In the case of `Brc1ccc2c(c1)-c1ccccc1C1=NCCN12`, the T/C was 100 % of control (dose: 5.0 mg/kg/injection, schedule: Q01DX009 (ip), vehicle: saline); 100 % of control (dose: 5.0 mg/kg/injection, schedule: Q04DX003 (ip), vehicle: saline); 100 % of control (dose: 10.0 mg/kg/injection, schedule: Q01DX009 (ip), vehicle: saline); 100 % of control (dose: 10.0 mg/kg/injection, schedule: Q04DX003 (ip), vehicle: saline); 95 % of control (dose: 20.0 mg/kg/injection, schedule: Q01DX009 (ip), vehicle: saline); 100 % of control and 104 % of control (dose: 20.0 mg/kg/injection, schedule: Q04DX003 (ip), vehicle: saline).

On to `Oc1c(CN2CCOCC2)cc(CN2CCOCC2)cc1CN1CCOCC1`, for which the T/C was 94 % of control under setting [3]; 103 % of control under setting [4]; 100 % of control under setting [5]; 100 % of control (dose: 400.0 mg/kg/injection, schedule: Q01DX009 (ip), vehicle: saline with Tween-80).

Take `COc1cc2c(cc1OC)C1CC(=O)C(Cc3ccccc3)CN1CC2` (configuration not stated): the T/C (dose: 50.0 mg/kg/injection, schedule: Q01DX009 (ip), vehicle: Klucel (hydroxypropylcellulose) (HPC)) is 101 % of control; the T/C (dose: 100.0 mg/kg/injection, schedule: Q01DX009 (ip), vehicle: Klucel (hydroxypropylcellulose) (HPC)) was 87 % of control and 95 % of control; the T/C (dose: 200.0 mg/kg/injection, schedule: Q01DX009 (ip), vehicle: Klucel (hydroxypropylcellulose) (HPC)) is 95 % of control and 104 % of control.

Take `CCN(CC)CCOc1cccc(NC(=O)CN(CC)CC)c1`: the T/C was 106 % of control (dose: 15.0 mg/kg/injection, schedule: Q01DX005 (ip), vehicle: Klucel (hydroxypropylcellulose) (HPC)); 103 % of control (dose: 30.0 mg/kg/injection, schedule: Q01DX005 (ip), vehicle: Klucel (hydroxypropylcellulose) (HPC)); 105 % of control and 96 % of control under setting [6].

As to `COC(=O)C(C#N)=C(Cl)Cl`, the T/C runs as follows: (dose: 1.56 mg/kg/injection, schedule: Q01DX005 (ip), vehicle: Klucel (hydroxypropylcellulose) (HPC)) 98 % of control; (dose: 3.12 mg/kg/injection, schedule: Q01DX005 (ip), vehicle: Klucel (hydroxypropylcellulose) (HPC)) 94 % of control; (dose: 6.25 mg/kg/injection, schedule: Q01DX005 (ip), vehicle: Klucel (hydroxypropylcellulose) (HPC)) 93 % of control.

As to `O=C1c2ccccc2C2(O)C(=O)c3ccccc3C12` (configuration not stated), the T/C reads like this: (dose: 100.0 mg/kg/injection, schedule: Q01DX001 (ip), vehicle: Klucel (hydroxypropylcellulose) (HPC)) 102 % of control; (dose: 200.0 mg/kg/injection, schedule: Q01DX001 (ip), vehicle: Klucel (hydroxypropylcellulose) (HPC)) 105 % of control; (dose: 400.0 mg/kg/injection, schedule: Q01DX001 (ip), vehicle: Klucel (hydroxypropylcellulose) (HPC)) 108 % of control.

In the case of `Cc1cc(O)c(Cl)cc1Cl`, the T/C runs as follows: under setting [7], 100 % of control; under setting [8], 99 % of control; (dose: 400.0 mg/kg/injection, schedule: Q01DX009 (ip), vehicle: saline) 97 % of control.

Consider `CC(C)COC(=O)C1(N)CCCC1`, for which the T/C reads like this: under setting [1], 95 % of control; under setting [2], 104 % of control; (dose: 400.0 mg/kg/injection, schedule: Q04DX003 (ip), vehicle: saline) 100 % of control.

For `O=C(O)c1cc2c(c(C(=O)O)c1O)CCCC2`, the T/C by setting is: (dose: 6.25 mg/kg/injection, schedule: Q01DX005 (ip), vehicle: saline) 94 % of control; (dose: 12.5 mg/kg/injection, schedule: Q01DX005 (ip), vehicle: saline) 92 % of control; (dose: 25.0 mg/kg/injection, schedule: Q01DX005 (ip), vehicle: saline) 94 % of control.

In the case of `O=C(NCCCC1NC(=O)/C(=C(O)/C=C/C=C/c2ccccc2)C1=O)OCc1ccccc1` (configuration not stated), the T/C (dose: 50.0 mg/kg/injection, schedule: Q01DX005 (ip), vehicle: saline with Tween-80) was 88 % of control and the T/C under setting [9] was 92 % of control.

Take `Clc1ccc(-c2c(-c3ccccc3)c3n(c2Sc2ccccc2)CCC3)cc1`: the T/C is 92 % of control under setting [6]; 89 % of control (dose: 120.0 mg/kg/injection, schedule: Q01DX005 (ip), vehicle: Klucel (hydroxypropylcellulose) (HPC)); 86 % of control (dose: 240.0 mg/kg/injection, schedule: Q01DX005 (ip), vehicle: Klucel (hydroxypropylcellulose) (HPC)).

Regarding `C1=C2NNC(c3ccccc3)=C(c3ccccc3)C2=CCC1` (tested in a mixture with another compound), the T/C was 96 % of control under setting [10]; 92 % of control under setting [11]; 91 % of control (dose: 240.0 mg/kg/injection, schedule: Q01DX005 (ip), vehicle: saline with Tween-80).

For the compound `COc1ccc(CCNC(=O)c2c3nc4c(C(=O)NCCc5ccc(OC)c(OC)c5)ccc(C)c4oc-3c(C)c(=O)c2N)cc1OC`, the T/C (dose: 100.0 mg/kg/injection, schedule: Q04DX003 (ip), vehicle: saline + alcohol) was 104 % of control; the T/C (dose: 200.0 mg/kg/injection, schedule: Q04DX003 (ip), vehicle: saline + alcohol) was 102 % of control; the T/C (dose: 400.0 mg/kg/injection, schedule: Q04DX003 (ip), vehicle: saline + alcohol) is 105 % of control.

Turning to `NC(=S)c1ncn(C2OC(COC=O)C(OC=O)C2OC=O)c1NC=O` (configuration not stated), the T/C is 110 % of control (dose: 25.0 mg/kg/injection, schedule: Q01DX005 (ip), vehicle: Klucel (hydroxypropylcellulose) (HPC)); 108 % of control (dose: 50.0 mg/kg/injection, schedule: Q01DX005 (ip), vehicle: Klucel (hydroxypropylcellulose) (HPC)); 113 % of control (dose: 100.0 mg/kg/injection, schedule: Q01DX005 (ip), vehicle: Klucel (hydroxypropylcellulose) (HPC)); 120 % of control (dose: 200.0 mg/kg/injection, schedule: Q01DX005 (ip), vehicle: Klucel (hydroxypropylcellulose) (HPC)); 114 % of control under setting [9]; 100 % of control (dose: 400.0 mg/kg/injection, schedule: Q01DX005 (ip), vehicle: Klucel (hydroxypropylcellulose) (HPC)). In addition, for the setting “dose: 400.0 mg/kg/injection, schedule: Q01DX005 (ip), vehicle: saline with Tween-80”, the T/C was 97 % of control.

Regarding `NC(=O)c1cccnc1`, the T/C is 106 % of control under setting [3]; 110 % of control under setting [4]; 97 % of control under setting [5]; 102 % of control (dose: 250.0 mg/kg/injection, schedule: Q01DX009 (sc), vehicle: saline); 105 % of control (dose: 500.0 mg/kg/injection, schedule: Q01DX009 (sc), vehicle: saline).

Turning to `C[n+]1c(-c2ccc(/C=N/NC(=O)c3cc(O)c(C(=O)N/N=C/c4ccc(-c5cn6ccccc6[n+]5C)cc4)cc3O)cc2)cn2ccccc21`, the T/C under setting [10] was 105 % of control and the T/C under setting [11] was 105 % of control.

Regarding `CC(C)C(NC(=O)C1CCCN1)C(=O)O` (stereo not drawn) (H-Pro-Val-OH; configuration not given here), the T/C runs as follows: (dose: 50.0 mg/kg/injection, schedule: Q01DX009 (ip), vehicle: saline) 103 % of control; under setting [7], 99 % of control; under setting [8], 100 % of control.

The values are drawn from PubChem BioAssay AID330 (DTP/NCI, 2004).
